From patent US12280037B2, “Method and pharmaceutical composition for treating or preventing trichomoniasis and uses thereof” (EVOFEM BIOSCIENCES, INC., priority 2020, dated 2025) come the findings set out here.

This data set is described as follows: EE2 plasma pharmacokinetics alone and with SYM-1219 2 grams (Example 2, Part B). It counts as in vivo, human.
Setting [1] is: Group B1 (SYM-1219 2 grams co-administered on Day 1).
[2] abbreviates: Group B1: Period 2 (SYM-1219 2 grams same day) vs Period 1 (EE2/NET alone).
[3] abbreviates: Group B1 Period 1: EE2/NET alone.
Where [4] appears, read: Group B1 Period 2: EE2/NET followed by SYM-1219 2 grams on Day 1.
Where [5] appears, read: Group B2: Period 2 (EE2/NET 1 day after SYM-1219 2 grams) vs Period 1 (EE2/NET alone).
Where [6] appears, read: Group B2 Period 1: EE2/NET alone.
Where [7] appears, read: Group B2 Period 2: SYM-1219 2 grams on Day 1, EE2/NET on Day 2.

As to `C#C[C@]1(O)CC[C@H]2[C@@H]3CCc4cc(O)ccc4[C@H]3CC[C@@]21C` [EE2, ethinyl estradiol], under setting [1], the “Change in EE2 AUC” value was “no change” and the “EE2 Cmax reduced by” value is recorded as 29%. Under setting [2], the “EE2 AUC0-t, Geometric LSMean % Ratio (SE), 100*Test/Reference” value is recorded as 94.26 (2.683) %; the “EE2 AUC0-∞, Geometric LSMean % Ratio (SE), 100*Test/Reference” value was 105.37 (4.565) %; the “EE2 Cmax, Geometric LSMean % Ratio (SE), 100*Test/Reference” value is reported as 71.07 (4.951) %. Under setting [3], the “EE2 AUC0-t, Mean (% CV)” value was 643.67 (23.85) h*pg/mL; the “EE2 Cmax, Geometric Least Squares (LS) Means (SE)” value (shortened to “EE2 Cmax … (LS) Means (SE)”) was 77.92 (3.839) pg/mL; the “EE2 Cmax, Mean (% CV)” value is 80.63 (26.84) pg/mL. For the same compound, under setting [4], the “EE2 AUC0-t, Geometric Least Squares (LS) Means (SE)” value (from here on “EE2 AUC0-t … (LS) Means (SE)”) is reported as 590.74 (11.892) h*pg/mL; the “EE2 Cmax … (LS) Means (SE)” value is 55.38 (2.728) pg/mL; the “EE2 Cmax, Mean (% CV)” value is given as 59.88 (42.19) pg/mL. The “EE2 PK alteration” value (Group B2 (EE2/NET 1 day after SYM-1219 2 grams)) is recorded as “not altered”. Under setting [5], the “EE2 AUC0-t, Geometric LSMean % Ratio (SE), 100*Test/Reference” value is recorded as 99.04 (2.291) %; the “EE2 AUC0-∞, Geometric LSMean % Ratio (SE), 100*Test/Reference” value is given as 93.32 (3.570) %; the “EE2 Cmax, Geometric LSMean % Ratio (SE), 100*Test/Reference” value was 104.96 (4.034) %. For the same compound, under setting [6], the “EE2 AUC0-t … (LS) Means (SE)” value is on record as 649.96 (10.631) h*pg/mL and the “EE2 AUC0-t, Mean (% CV)” value is reported as 680.48 (28.91) h*pg/mL. Besides, under setting [7], the “EE2 AUC0-t … (LS) Means (SE)” value is given as 643.74 (10.529) h*pg/mL and the “EE2 Cmax … (LS) Means (SE)” value is 87.16 (2.369) pg/mL.
